This note sets out measurements from US7186824B2, “Reduction inhibitory agent for active-oxygen eliminating activity” (Kabushiki Kaisha Hayashibara Seibutsu Kagaku Kenkyujo, priority 1997, dated 2007).

What all share (assay type): biochemical
The nature of test [1]: Active-oxygen eliminating activity of superoxide dismutase and antioxidants in water or trehalose solution before/after storage (NBT test). Conditions: for Activity (unit/mg antioxidant) Before storage: in trehalose solution, trehalose concentration 45%; for Activity (unit/mg antioxidant) After storage: light-shielded. How it is done:
(§1) Fresh raw carrots were disrupted by a mixer, and 10% of either of saccharides, d.s.b., was added to the mixture and dissolved therein. The solution was dried under reduced pressures at 40° C. for two days, dried in vacuo at the same temperature for 24 hours, and pulverized by a mixer into a powdery carrot composition. The saccharides used were commercialized reagents of glucose, mannitol, sorbitol, maltose, sucrose, trehalose, and pullulan. An about 100 g of the composition was placed and sealed in a 500-ml polystyrene container, and stored at 40° C. for seven days. The active-oxygen eliminating activity of the composition before and after the storage were compared. The assay for the active-oxygen eliminating activity followed the nitroblue tetrazolium test by Toshio IMANARI et at in Igakuno Ayumi, Vol. 101, pp. 496–497 (1977); the level of superoxide, formed in a xanthine-xanthine oxidase system, was assayed by quantifying calorimetrically the content of formazan formed by reducing NBT. As a control, refined water was used as a test solution. One unit activity of active-oxygen eliminating activity is defined as that inhibits 50% formazan formation as compared with the control. […] The reduction inhibitory activity of trehalose was strongly higher than that of glucose as the constituent saccharide for trehalose, and that of maltose as a disaccharide consisting of two glucose units similar to trehalose. Thus trehalose is suitably used as an effective ingredient for a reduction inhibitory agent for active-oxygen eliminating activity.
In one milliliter of a 45 w/v % trehalose solution was dissolved five micrograms of superoxide dismutase from a horseradish-commercialized by Sigma Chemical Co., St. Louise, USA, 10 mg α-glucosyl hesperidin commercialized by Hayashibara Biochemical Laboratories, Inc., Okayama, Japan, 10 mg α-glucosyl rutin commercialized by Hayashibara Biochemical Laboratories, Inc., Okayama, Japan, 250 μg gallic acid commercialized by Wako Pure Chemical Industries, Ltd., Tokyo, Japan, or 50 μg catechin to obtain a liquid composition. Each of the compositions was placed in a glass test tube, sealed with a rubber cap, and stored under light-shielded conditions. As a control, water was used in place of the trehalose solution. […] Mere mixing of a powdery crystalline trehalose hydrate and either of the powdery antioxidants into a powdery mixture, almost no change of the active-oxygen eliminating activity was observed when subjected to storage test similarly as above.

Test [2] is described as follows: Influence of saccharides on active-oxygen eliminating activity of powdery carrot composition before/after storage (NBT test). Conditions: compared among the saccharides tested, 40° C. seven days. The procedure: Fresh raw carrots were disrupted by a mixer, and 10% of either of saccharides, d.s.b., was added to the mixture and dissolved therein. The solution was dried under reduced pressures at 40° C. for two days, dried in vacuo at the same temperature for 24 hours, and pulverized by a mixer into a powdery carrot composition. The saccharides used were commercialized reagents of glucose, mannitol, sorbitol, maltose, sucrose, trehalose, and pullulan. An about 100 g of the composition was placed and sealed in a 500-ml polystyrene container, and stored at 40° C. for seven days. The active-oxygen eliminating activity of the composition before and after the storage were compared. The assay for the active-oxygen eliminating activity followed the nitroblue tetrazolium test by Toshio IMANARI et at in Igakuno Ayumi, Vol. 101, pp. 496–497 (1977); the level of superoxide, formed in a xanthine-xanthine oxidase system, was assayed by quantifying calorimetrically the content of formazan formed by reducing NBT. As a control, refined water was used as a test solution. One unit activity of active-oxygen eliminating activity is defined as that inhibits 50% formazan formation as compared with the control. […]

A short description of test [3]: Influence of trehalose concentration on active-oxygen eliminating activity of powdery carrot composition before/after storage (NBT test). Conditions: for Activity (unit/g) After storage / Percentage of residual activity (%): 40° C. for seven days; for Activity (unit/g) Before storage: powdery carrot composition. How it is done:
as §1
Similarly as in Experiment 1, 0–20% of trehalose, d.s.b., was mixed with and dissolved in a disrupted carrot. The resulting each mixture was dried in vacuo at 40° C. for 24 hours, and pulverized into a powdery carrot composition. Similarly as in Experiment 1, each powdery composition was placed and sealed in a polystyrene container, and stored at 40° C. for seven days for evaluating the reduction inhibitory activity for active-oxygen eliminating activity. […] Based on the data from Table 2, at least of about one percent, preferably, at least of about five percent, and more preferably, at least of about 20% of trehalose, d.s.b., exerted a desired effective reducing inhibitory activity for active-oxygen eliminating activity.

Where [4] appears, read: trehalose 0%, stored 80° C. 5 days.
Setting [5] is: trehalose 45%, stored 80° C. 5 days.
[6] abbreviates: 0.1% trehalose added to carrot (content 1.0% d.s.b.).
The mark [7] stands for this setting: 0.5% trehalose added to carrot (content 4.9% d.s.b.).
Setting [8] is: 1.0% trehalose added to carrot (content 9.4% d.s.b.).
Setting [9] is: 2.5% trehalose added to carrot (content 20.7% d.s.b.).
Setting [10] is: 5.0% trehalose added to carrot (content 34.2% d.s.b.).
[11] abbreviates: 10.0% trehalose added to carrot (content 51.1% d.s.b.).
Setting [12] is: 20.0% trehalose added to carrot (content 67.6% d.s.b.).
Where [13] appears, read: trehalose 45%, stored 25° C. 20 hours.

Take `O=C(O)c1cc(O)c(O)c(O)c1` [Gallic acid, gallic acid]: the “Activity (unit/mg antioxidant) Before storage” value in test [1] stood at 570 unit/mg antioxidant. Also, the “Activity (unit/mg antioxidant) After storage” value in test [1] (setting [4]) worked out at 390 unit/mg antioxidant. For the same compound, in test [1] (setting [5]), the “Residual activity (%)” value is reported as 82% and the “Activity (unit/mg antioxidant) After storage” value was 470 unit/mg antioxidant.
On to `OC[C@H]1O[C@H](O[C@H]2O[C@H](CO)[C@@H](O)[C@H](O)[C@H]2O)[C@H](O)[C@@H](O)[C@@H]1O` [Trehalose, α,α-trehalose], for which the “reduction inhibitory activity for active-oxygen eliminating activity (in words)” value in test [2] is on record as “strong effect”. The “Activity (unit/g) After storage” value in test [3] (setting [6]) stood at 400 unit/g; in test [3] (setting [7]), 460 unit/g; in test [3] (setting [8]), 480 unit/g; in test [3] (setting [9]), 460 unit/g; in test [3] (setting [10]) it was 370 unit/g; in test [3] (setting [11]), 330 unit/g. Moreover, the “Activity (unit/g) After storage” value in test [3] (setting [12]) is listed as 240 unit/g. Further, the “Percentage of residual activity (%)” value in test [3] (setting [6]) turned out to be 43%; in test [3] (setting [7]), 61%; in test [3] (setting [8]), 56%; in test [3] (setting [10]) it was 62%; in test [3] (setting [11]) it was 83%; in test [3] (setting [12]), 63%. Also, the “Activity (unit/g) Before storage” value in test [3] (setting [6]) was determined as 930 unit/g; in test [3] (setting [7]), 750 unit/g; in test [3] (setting [8]), 860 unit/g; in test [3] (setting [9]) it was 700 unit/g; in test [3] (setting [10]), 600 unit/g; in test [3] (setting [11]) it was 400 unit/g. Further, the “Activity (unit/g) Before storage” value in test [3] (setting [12]) is recorded as 380 unit/g.
Superoxide dismutase: in test [1], the “Activity (unit/mg antioxidant) Before storage” value is on record as 11,000 unit/mg antioxidant. Moreover, the “Activity (unit/mg antioxidant) After storage” value in test [1] (trehalose 0%, stored 60° C. 17 hours) was 4,600 unit/mg antioxidant; in test [1] (trehalose 45%, stored 60° C. 17 hours) it was 9,400 unit/mg antioxidant.
In the case of catechin, the “Activity (unit/mg antioxidant) Before storage” value in test [1] is given as 380 unit/mg antioxidant. For the same compound, the “Activity (unit/mg antioxidant) After storage” value was determined as 2.2 unit/mg antioxidant in test [1] (trehalose 0%, stored 25° C. 20 hours) and 310 unit/mg antioxidant in test [1] (setting [13]). Moreover, in test [1] (setting [13]), the “Residual activity (%)” value is 82%.
For the compound α-glucosyl hesperidin, the “Activity (unit/mg antioxidant) Before storage” value in test [1] is reported as 3.6 unit/mg antioxidant. Also, the “Activity (unit/mg antioxidant) After storage” value in test [1] (setting [4]) came out at 1.0 unit/mg antioxidant; in test [1] (setting [5]) it was 2.4 unit/mg antioxidant. Further, the “Residual activity (%)” value in test [1] (setting [5]) is 67%.
As for α-glucosyl rutin, the “Activity (unit/mg antioxidant) After storage” value in test [1] (setting [4]) was 18 unit/mg antioxidant; in test [1] (setting [5]) it was 22 unit/mg antioxidant.
